Like-named read-outs stand apart in the source and are kept apart here.
Assays:
[1] = molecular target: T1, thymidine phosphorylase (TP) (Escherichia coli, UniProt P07650); test: Thymidine phosphorylase inhibition assay (spectrophotometric, 290 nm); format: biochemical, E. coli; conditions: for inhibition: read-out: Percent Inhibition of thymidine phosphorylase, 10 μL of test compound (0.5 mM in dimethylsulfoxide) per well; for inhibition / inhibition at 500 µM (stock): <50% regarded inactive; for inhibition at 500 µM (stock): 10 μL of test compound (0.5 mM in dimethylsulfoxide) per well, read-out: Percent Inhibition of thymidine phosphorylase; for IC50: recombinant TP expressed in E. coli, substrate thymidine, pH 7.0, 30°C, N.A. = not active, read-out: IC50 (μM ± SEM), thymidine phosphorylase inhibition
T1 construct: purchased Sigma Aldrich, USA; host or cells: E. coli
Procedure: Since human TP is not commercially available, we used commercially available recombinant TP (expressed in E. coli) enzyme. Primary sequence of TP is mostly conserved throughout the evolution and mammalian TP share 39% sequence similarity with TP of E. coli. The mammalian enzyme also shares 65–70% similarity with the active site residues of E. coli TP enzyme.
Assay for TP inhibition was performed spectrophotometrically, following the method of Bera et al. with some modifications. Enzyme TP catalyzed the reversible phosphorolysis of thymidine to thymine and 2-deoxyribose-1-phosphate. Reaction mixture contained 150 μL of potassium phosphate buffer (pH 7.0, 50 mM), 20 μL of enzyme (0.058 U/well), and 10 μL of test compound (0.5 mM in dimethylsulfoxide). The reaction mixture was incubated for 10 min at 30°C. 20 μL of substrate (1.5 mM) was then added and change in absorbance was recorded after every minute for a total time period of 10 minutes at 290 nm in ELISA plate reader (Spectra Max-340, Molecular Devices, CA, USA).
We have used the 96-well UV-plates, purchased from Corning (Catalogue No. COSTAR 3635, Lot No. 00912050). […] We then added the substrate (thymidine), and recorded the final readings.

[2] = molecular target: T1, thymidine phosphorylase (TP); test: Kinetic studies on thymidine phosphorylase (Lineweaver-Burk, secondary re-plot, Dixon plot); format: biochemical, E. coli; conditions: thymidine as variable substrate; for Inhibition Type: from Lineweaver-Burk plot
Procedure: Kinetic studies were carried out to identify the mechanism of inhibition by these compounds. Inhibitor could bind with the enzyme in multiple ways, such as in competitive, non-competitive, mixed or uncompetitive way. In kinetic assay, the enzyme (0.058 U/200 μL) was incubated with different concentrations of inhibitor for 10 min at 30°C. The reaction was then initiated by adding different concentrations (0.1875–1.5 mM) of substrate (thymidine), and the resulting degradation of thymidine was measured continuously at 290 nm for 10 min on ELISA plate reader. Every experiment was run in triplicate.
Lineweaver-Burk plot was plotted to determine the type of inhibition. This was accomplished by plotting the reciprocal of the rate of reaction against the reciprocal of the substrate concentration. Ki values were determined by secondary re-plot of Lineweaver-Burk plot, and reconfirmed by Dixon plot.

[3] = system: mouse fibroblast (3T3) cells; test: MTT anti-proliferative (cytotoxicity) assay, 3T3 cells; format: cell-based; conditions: mouse fibroblast normal cell line, read-out: IC50 ± Standard Deviation, 3T3 Cell Line
Procedure: (§1) Anti-proliferative activity of active compounds was evaluated by using the standard MTT (3-[4,5-dimethylthiazole-2-yl]-2,5-diphenyl-tetrazolium bromide) colorimetric assay in 96-well plate.
(§2) It is a colorimetric assay that measures the reduction of MTT by mitochondrial enzyme i.e. succinate dehydrogenase. The MTT enters into the mitochondria of cell, where it is reduced to an insoluble formazan salt. As reduction of MTT can only occur in metabolically active cells, the level of activity is actually a measure of the viability of the cells.
(§3) Mouse fibroblast normal cell line 3T3, and prostate cancer line (PC3) were cultured separately in DMEM, supplemented with 5% of FBS, 100 IU/mL of penicillin and 100 μg/mL of streptomycin, and kept at 37°C in 5% CO2 incubator. For the preparation of cell culture, 100 μL/well of cell solution (5 x 10^4 cells/mL) was added into 96-well plate. The plate was incubated for overnight, and fresh medium was added after the removal of old medium. The test compounds were also added in different concentrations into the plate, and again incubated for 48 h. After the completion of this incubation period, 200 μL MTT (0.5 mg/mL) was added, and plate was again incubated for 4 h, after this final incubation, 100 μL of DMSO was added to each well. The level of MTT reduction to formazan was evaluated by change in absorbance at 540 nm for 3T3, and 570 nm for PC3 using a micro-plate reader (Spectra Max plus, Molecular Devices, CA, USA).

[4] = system: prostate cancer (PC3) cells; test: MTT anti-proliferative assay, PC3 cells; format: cell-based; conditions: Homo sapiens, PC-3, 48 h incubation, prostate cancer cell line, read-out: IC50 ± Standard Deviation, PC3 Cell Line
Procedure: as §1, §2, §3

T1 sequence (P07650 whole entry): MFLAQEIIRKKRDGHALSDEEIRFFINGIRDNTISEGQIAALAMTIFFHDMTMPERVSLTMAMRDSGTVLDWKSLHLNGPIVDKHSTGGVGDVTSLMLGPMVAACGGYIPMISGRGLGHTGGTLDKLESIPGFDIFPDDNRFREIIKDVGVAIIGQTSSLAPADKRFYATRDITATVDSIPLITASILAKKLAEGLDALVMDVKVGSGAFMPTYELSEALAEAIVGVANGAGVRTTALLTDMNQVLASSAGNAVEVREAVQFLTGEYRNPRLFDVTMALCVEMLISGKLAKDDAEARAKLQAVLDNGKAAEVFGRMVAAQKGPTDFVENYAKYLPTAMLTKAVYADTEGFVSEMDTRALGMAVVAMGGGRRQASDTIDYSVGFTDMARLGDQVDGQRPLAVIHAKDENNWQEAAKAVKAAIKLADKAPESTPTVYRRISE

Compound	inhibition [1]	IC50 ([3]; NIH3T3, 48 h incubation)	IC50 [4]	other results
O=c1[nH]c(=O)c2cc[nH]c2[nH]1 [7-Deazaxanthine, reference compound]	99%	–	–	Inhibition Type [2]: Non-competitive
O=C(N/N=C/c1ccccc1O)c1ccc(O)cc1 [Compound 1, 4-Hydroxyl-N'-[(E)-(2^′-hydroxylphenyl)methylidene]benzohydrazide]	99.6%	13.1 ± 0.3 µM	7.5 ± 0.4 µM	–
O=C(N/N=C/c1cccc(O)c1O)c1ccc(O)cc1 [Compound 2, N'-[(E)-(2^′,3^′-Dihydroxylphenyl)methylidene]-4-hydroxylbenzohydrazide]	99.9%	23 ± 1 µM	7.6 ± 0.4 µM	–
O=C(N/N=C/c1ccc(O)c(O)c1)c1ccc(O)cc1 [Compound 3, N'-[(E)-(3^′,4^′-Dihydroxylphenyl)methylidene]-4-hydroxylbenzohydrazide]	99.3%	23.5 ± 1.1 µM	> 30 µM	Inhibition Type [2]: Uncompetitive
O=C(N/N=C/c1c(O)cc(O)cc1O)c1ccc(O)cc1 [Compound 4, 4-Hydroxyl-N'-[(E)-(2^′,4^′,6^′-trihydroxylphenyl)methylidene]benzohydrazide]	–	–	–	inhibition at 500 µM (stock) [1]: 8%
O=C(N/N=C/c1ccc(O)c(O)c1O)c1ccc(O)cc1 [Compound 5, 4-Hydroxyl-N'-[(E)-(2^′,3^′,4^′-trihydroxylphenyl)methylidene]benzohydrazide]	–	–	–	inhibition at 500 µM (stock) [1]: 26%
O=C(N/N=C/c1cccc(O)c1)c1ccc(O)cc1 [Compound 6, 4-Hydroxyl-N'-[(E)-(3^′-hydroxylphenyl)methylidene]benzohydrazide]	99%	> 30 µM	> 30 µM	–
O=C(N/N=C/c1cc(O)c(O)cc1O)c1ccc(O)cc1 [Compound 7, 4-Hydroxyl-N'-[(E)-(2^′,4^′,5^′-trihydroxylphenyl)methylidene]benzohydrazide]	99%	3.8 ± 0.4 µM	> 30 µM	–
O=C(N/N=C/c1ccc(O)cc1)c1ccc(O)cc1 [Compound 8, 4-Hydroxyl-N'-[(E)-(4^′-hydroxylphenyl)methylidene]benzohydrazide]	99%	> 30 µM	> 30 µM	–
O=C(NN=Cc1ccc(Cl)cc1)c1ccc(O)cc1 [Compound 9, N'-[(E)-(4^′-Chlorophenyl)methylidene]-4-hydroxylbenzohydrazide]	99%	> 30 µM	> 30 µM	IC50 [1]: 159 ± 0.4 µM; Inhibition Type [2]: Uncompetitive; Ki ([2]; secondary re-plot of Lineweaver-Burk plot, reconfirmed by Dixon plot, read-out: Ki (μM ± SEM)): 138 ± 0.009 µM
COc1ccc(/C=N/NC(=O)c2ccc(O)cc2)cc1 [Compound 10, 4-Hydroxyl-N'-{(E)-[4^′-(methoxy)phenyl]methylidene}benzohydrazide]	99.8%	> 30 µM	> 30 µM	–
O=C(N/N=C/c1cccc(Cl)c1)c1ccc(O)cc1 [Compound 11, N'-[(E)-(3^′-Chlorophenyl)methylidene]-4-hydroxylbenzohydrazide]	99%	> 30 µM	> 30 µM	–
COc1ccccc1/C=N/NC(=O)c1ccc(O)cc1 [Compound 12, 4-Hydroxyl-N'-{(E)-[2^′-(methoxy)phenyl]methylidene}benzohydrazide]	99%	> 30 µM	> 30 µM	–
COc1ccc(/C=N/NC(=O)c2ccc(O)cc2)cc1OC [Compound 13, N'-{(E)-[3^′,4^′-Bis(methoxy)phenyl]methylidene}-4-hydroxylbenzohydrazide]	99%	> 30 µM	> 30 µM	–
O=C(N/N=C/c1ccc(Br)cc1)c1ccc(O)cc1 [Compound 14, N'-[(E)-(4^′-Bromophenyl)methylidene]-4-hydroxylbenzohydrazide]	96.6%	> 30 µM	> 30 µM	Inhibition Type [2]: Uncompetitive
O=C(N/N=C/c1ccc(Cl)cc1Cl)c1ccc(O)cc1 [Compound 15, N'-[(E)-(2^′,4^′-Dichlorophenyl)methylidene]-4-hydroxylbenzohydrazide]	–	–	–	inhibition at 500 µM (stock) [1]: 20%
Cc1ccccc1/C=N/NC(=O)c1ccc(O)cc1 [Compound 16, 4-Hydroxyl-N'-[(E)-(2^′-methylphenyl)methylidene]benzohydrazide]	99%	> 30 µM	> 30 µM	–
COc1cccc(/C=N/NC(=O)c2ccc(O)cc2)c1O [Compound 19, 4-Hydroxyl-N'-[(E)-(2^′-hydroxyl-3^′-methoxyphenyl)methylidene]benzohydrazide]	86.9%	23.6 ± 0.2 µM	9.6 ± 0.3 µM	IC50 [1]: 181.5 ± 1.6 µM
O=C(N/N=C/c1cc(Br)ccc1O)c1ccc(O)cc1 [Compound 20, N'-[(E)-(5^′-Bromo-2^′-hydroxylphenyl)methylidene]-4-hydroxylbenzohydrazide]	–	–	–	inhibition at 500 µM (stock) [1]: 38.6%
O=C(N/N=C/c1cc(Cl)ccc1O)c1ccc(O)cc1 [Compound 21, N'-[(E)-(5^′-Chloro-2^′-hydroxylphenyl)methylidene]-4-hydroxylbenzohydrazide]	12.4%	–	–	–
COc1ccc(O)c(/C=N/NC(=O)c2ccc(O)cc2)c1 [Compound 23, 4-Hydroxyl-N'-{(E)-[2^′-hydroxyl-5^′-(methoxy)phenyl]methylidene}benzo-hydrazide]	99.9%	15.3 ± 0.9 µM	10.5 ± 0.5 µM	–
CCOc1cccc(/C=N/NC(=O)c2ccc(O)cc2)c1O [Compound 24, N'-{(E)-[3^′-Ethoxy-2^′-hydroxylphenyl]methylidene}-4-hydroxylbenzohydrazide]	82.4%	9.4 ± 0.3 µM	6.5 ± 0.2 µM	–
C/C(=N\NC(=O)c1ccc(O)cc1)c1ccccc1O [Compound 25, 4-Hydroxyl-N'-[(E)-1-(2^′-hydroxylphenyl)ethylidene]benzohydrazide]	25%	–	–	–
C/C(=N\NC(=O)c1ccc(O)cc1)c1ccc(O)cc1O [Compound 26, N'-[(E)-1-(2^′,4^′-Dihydroxylphenyl)ethylidene]-4-hydroxylbenzohydrazide]	30%	–	–	–
C/C(=N\NC(=O)c1ccc(O)cc1)c1cc(O)ccc1O [Compound 28, N'-[(E)-1-(2^′,5^′-Dihydroxylphenyl)ethylidene]-4-hydroxylbenzohydrazide]	99.3%	20.2 ± 0.9 µM	> 30 µM	–
C[C@@H]1C[C@@H]([C@H](O)CC2CC(=O)NC(=O)C2)C(=O)[C@@H](C)C1 [Cyclohexamide, cyclohexamide, reference compound]	–	–	–	IC50 ([3]; 48 h incubation): 0.26 ± 0.1 µM
COc1cccc2c1C(=O)c1c(O)c3c(c(O)c1C2=O)C[C@@](O)(C(=O)CO)C[C@@H]3O[C@H]1C[C@H](N)[C@H](O)[C@H](C)O1 [Doxorubicin, doxorubicin, reference compound]	–	–	0.91 ± 0.1 µM	–
N=C1CCCN1Cc1nc(O)nc(O)c1Cl [tipiracil, reference compound]	99%	–	–	–
